We go through 26 compounds from ChEMBL document CHEMBL1201862, “PubChem BioAssay data set” (2004).

The structures appear in SMILES notation.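 Five compound concentrations were applied to cells in 96-well plates for 48 hours; endpoints were derived by simple linear interpolation of the resulting dose-response curve. Abbreviation: GI50, concentration required for 50% inhibition of growth.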 Active and inactive are the calls of the source. Rule as the data show it: active = GI50 up to about 1.1 µM and inactive = higher.

What all share (test): NCI-60 cell line screen, 48 h
Experiment [1] concerns KM-20L2.
In experiment [2] the test system is HOP-18.
Experiment [3] has as its system M19-MEL.
For experiment [4], the system named is DLD-1.
For experiment [5], the system named is RXF 631.
Experiment [6] deals with DMS-273.
For experiment [7], the system named is LXFL 529.
In experiment [8] the test system is DMS-114.
For experiment [9], the system named is XF498.

As for `O=[N+]([O-])c1cc(I)cc(/C=N/NS(=O)(=O)c2ccc(Cl)cc2)c1O`, the GI50 was 36 µM (inactive) in [1]; 19.1 µM (inactive) in experiment [2]; 25.2 µM (inactive) in [3]; 26 µM (inactive) in [4]; 22.7 µM (inactive) in [5]; 19.8 µM (inactive) in experiment [6]. Also, the GI50 in [7] was 19.4 µM (inactive).
Take `COc1ccc2c(c1OCC(=O)O)C(=O)C(CCC(=O)O)CC2` (configuration not stated): the GI50 in experiment [1], in [2], in experiment [3], in [8], in experiment [4] and in experiment [5] was > 100 µM (inactive) throughout. The GI50 is > 100 µM (inactive) in [6], > 100 µM (inactive) in experiment [7] and 71.1 µM (inactive) in experiment [9].
On to `CC(=O)O[C@]1(C)CCC2C(C)C(=O)OC2C2C(C)[C@@H](O)CC21` (some centres not stated), for which the GI50 was 29.3 µM (inactive) in experiment [1]; 40.6 µM (inactive) in experiment [2]; 23.2 µM (inactive) in experiment [3]; 41.4 µM (inactive) in experiment [4]; 22.4 µM (inactive) in [6]; 21.7 µM (inactive) in experiment [7].
In the case of `Cc1nn(C)c(=S)n(C)c1=O`, the GI50 was 24.9 µM (inactive) in experiment [1]; 0.43 µM (active) in experiment [2]; 0.624 µM (active) in experiment [3]; 0.269 µM (active) in [8]; 3.16 µM (inactive) in experiment [4]; 0.427 µM (active) in experiment [6]. Besides, the GI50 in [7] was 0.515 µM (active); in experiment [9], 1.15 µM (inactive).
For `COc1cc(Cc2nccc3cc(OC)c(OC)cc23)c(C(C)=O)cc1OC`, the GI50 in experiment [1] is 56.9 µM (inactive); in experiment [2], > 300 µM (inactive); in experiment [3], 64.9 µM (inactive); in experiment [8], 5.94 µM (inactive); in experiment [4], 136 µM (inactive); in experiment [5] it was > 750 µM (inactive). Moreover, the GI50 in experiment [6] was 14.9 µM (inactive); in experiment [7] it was 25.5 µM (inactive); in experiment [9], 12.2 µM (inactive).
For `COC(=O)NC(=O)c1cn(C2CCCCC2)c(=O)[nH]c1=O`, the GI50 in experiment [1], in experiment [2], in experiment [3], in experiment [8], in experiment [4] and in [6] was > 100 µM (inactive) throughout. In addition, in experiment [7], the GI50 was > 100 µM (inactive).
Take `C/C(CC(=O)Nc1ccc(Cl)cc1)=N\NC(N)=S`: the GI50 in experiment [1] is 13.9 µM (inactive); in experiment [3], 66.5 µM (inactive); in experiment [8], 39.1 µM (inactive); in experiment [4], 18.3 µM (inactive); in experiment [5], > 100 µM (inactive); in [6], 8.09 µM (inactive). Moreover, the GI50 in experiment [7] is 5.47 µM (inactive); in [9], > 100 µM (inactive).
As for `O=C(OCCOCBr)c1ccccc1`, the GI50 in [1], in experiment [2], in [8], in experiment [4], in experiment [5] and in experiment [6] was > 100 µM (inactive) in each case. Also, the GI50 in experiment [7] is > 100 µM (inactive).
Consider `COc1cc(/C=C2\CCC/C(=C\c3ccc(O)c(OC)c3)C2=O)ccc1O` [CYCLOVALONE], for which the GI50 in experiment [1] was 15.2 µM (inactive); in experiment [2], 2.74 µM (inactive); in [3], 1.86 µM (inactive); in experiment [8], 1.77 µM (inactive); in experiment [4], 1.75 µM (inactive); in experiment [6] it was 1.51 µM (inactive). The GI50 in experiment [7] is 1.85 µM (inactive); in experiment [9], 5.7 µM (inactive).
With `COc1cccc(NC(=O)CSc2nnc(-c3ccc(/N=C\c4ccc(Cl)cc4)cc3)o2)c1`, the GI50 in experiment [1] is 16.9 µM (inactive); in experiment [2], 40 µM (inactive); in experiment [3], 22.8 µM (inactive); in experiment [8], 20.5 µM (inactive); in [6], > 10 µM (inactive); in experiment [7], 19.8 µM (inactive). For the same compound, the GI50 in [9] was 19.2 µM (inactive).
Turning to `CC(=O)Nc1ccc(C(=O)N2N=C(C)/C(=C/c3ccccc3O)C2=O)cc1`, the GI50 was 49.3 µM (inactive) in experiment [2]; > 100 µM (inactive) in experiment [3]; > 100 µM (inactive) in [8]; > 100 µM (inactive) in [4]; > 100 µM (inactive) in experiment [6]; > 100 µM (inactive) in experiment [9].
On to `CCCC/C=C/C1Cc2ccccc2CN1S(=O)(=O)c1ccc(C)cc1` (configuration not stated), for which the GI50 in [1] is 11.6 µM (inactive); in experiment [2], 83 µM (inactive); in [3], 6.01 µM (inactive); in experiment [8] it was 3.03 µM (inactive); in [4], 7.71 µM (inactive); in experiment [5] it was 5.78 µM (inactive). Besides, the GI50 is 7.71 µM (inactive) in experiment [6], 5.42 µM (inactive) in experiment [7] and 17 µM (inactive) in [9].
On to `N/N=C(/Cc1nc2ccc(C(=O)c3ccccc3)cc2nc1O)C(=O)Nc1ccc([N+](=O)[O-])cc1[N+](=O)[O-]`, for which the GI50 was > 100 µM (inactive) in experiment [1]; 35.5 µM (inactive) in experiment [2]; > 10 µM (inactive) in experiment [3]; > 10 µM (inactive) in experiment [8]; > 10 µM (inactive) in [6]; > 10 µM (inactive) in experiment [7]. Further, the GI50 in experiment [9] was 8.07 µM (inactive).
On to `CCCCCCCCC(=O)NCCN(CCN)C(=O)CCCCCCCC`, for which the GI50 was 5.04 µM (inactive) in experiment [1]; 16.7 µM (inactive) in experiment [2]; 5.74 µM (inactive) in experiment [3]; 4.79 µM (inactive) in [8]; 5.37 µM (inactive) in [4]; 4.08 µM (inactive) in [5]. In addition, the GI50 was 2.87 µM (inactive) in experiment [6], 3.36 µM (inactive) in [7] and 2.42 µM (inactive) in experiment [9].
With `CCC1(O)C(=O)OCc2c1cc1n(c2=O)Cc2cc3cc4c(cc3nc2-1)OCO4` (configuration not stated), the GI50 in experiment [1] is 0.0137 µM (active); in [2] it was < 0.01 µM (active); in [3], < 0.01 µM (active); in [8], < 0.01 µM (active); in [4] it was 0.0759 µM (active); in [5], 0.0176 µM (active). For the same compound, the results for the GI50 in experiment [6], in [7] and in experiment [9] were < 0.01 µM (active), 0.0617 µM (active) and < 0.0185 µM (active), respectively.
As to `NCCn1cnc2nc(NC(=O)c3ccccc3)[nH]c(=O)c21`, the GI50 in experiment [1], in experiment [2], in experiment [3], in experiment [8], in experiment [4] and in [5] was > 100 µM (inactive) each time. The GI50 in experiment [7] is > 100 µM (inactive).
As for `CCC(O)C1Cc2c(C)cc3c(c2O1)C(=O)c1ccccc1C3=O` (configuration not stated), the GI50 in experiment [1] was 35.2 µM (inactive); in experiment [2], 17.2 µM (inactive); in experiment [3], 41.7 µM (inactive); in experiment [8] it was 25.4 µM (inactive); in experiment [4], 42 µM (inactive); in [6] it was 28.7 µM (inactive). Also, the GI50 in experiment [7] is 28.8 µM (inactive); in experiment [9] it was 14.3 µM (inactive).
For the compound `Clc1ccc2c(NCCCCCCNc3ccnc4cc(Cl)ccc34)ccnc2c1`, the GI50 in experiment [1] was 1.99 µM (inactive); in [3], 3.13 µM (inactive); in experiment [8], 1.8 µM (inactive); in experiment [4] it was 3.03 µM (inactive); in experiment [5], 2.44 µM (inactive); in experiment [6], 2.98 µM (inactive). Besides, the results for the GI50 in experiment [7] and in experiment [9] were 2.33 µM (inactive) and 1.57 µM (inactive), respectively.
Take `C/C(=N\NC(N)=O)c1sc(-c2nc(C)c(/C(C)=N/NC(N)=O)s2)nc1C`: the GI50 in [1] was 49.3 µM (inactive); in experiment [2], > 100 µM (inactive); in [3], > 100 µM (inactive); in experiment [4] it was 46.6 µM (inactive); in experiment [6] it was 21.1 µM (inactive); in [7] it was > 100 µM (inactive). For the same compound, in experiment [9], the GI50 was > 100 µM (inactive).
For `CCCCCCCCCCCCCc1nnn[nH]1`, the GI50 is 20.2 µM (inactive) in experiment [1]; 15 µM (inactive) in [2]; 19.7 µM (inactive) in experiment [3]; 18.5 µM (inactive) in [8]; 17.1 µM (inactive) in experiment [4]; 15.4 µM (inactive) in [5]. In addition, the GI50 in experiment [7] is 17.3 µM (inactive).
For the compound `Cc1ccc(S(=O)(=O)c2ccc(N)cc2)cc1`, the GI50 in [1], in [3], in experiment [4], in [5], in experiment [6] and in experiment [7] was > 100 µM (inactive) in each case. The GI50 in experiment [9] was > 100 µM (inactive).
For the compound `CC(C)(C)OC(=O)NCC(=O)OCc1ccccc1`, the GI50 in experiment [3], in experiment [8], in [4], in experiment [6], in experiment [7] and in experiment [9] was > 100 µM (inactive) in each case.
In the case of `CC(=O)Oc1ccc2c(=O)c(C(C)=O)coc2c1`, the GI50 in experiment [1] is > 100 µM (inactive); in experiment [3], > 100 µM (inactive); in experiment [6], > 100 µM (inactive); in [7], > 100 µM (inactive); in experiment [9], 83.9 µM (inactive).
In the case of `c1nc2cscc2c2cscc12`, the GI50 in [3], in experiment [8], in experiment [6], in experiment [7] and in experiment [9] was > 100 µM (inactive) throughout.
`CCOC(=O)c1oc2c(OC)cc(Cl)c3c2c1CCC3`: the GI50 is > 100 µM (inactive) in experiment [3]; > 100 µM (inactive) in experiment [8]; > 100 µM (inactive) in [4]; 92 µM (inactive) in experiment [6]; > 100 µM (inactive) in [7]; 19.5 µM (inactive) in experiment [9].
For `COc1ccccc1/C=C(\C#N)C(=O)c1ccccc1`, the GI50 in [1], in experiment [3], in experiment [8], in [6] and in experiment [9] was > 100 µM (inactive) each time.
